# pEC50: −log10 of the molar value. Values joined by “and” are separate entries in the source; they are usually repeats but may differ in a detail not shown here. Identical values can stand only once.
# How the values were obtained:
# [1] = biological target: T1, Vitamin D3 receptor (Rattus norvegicus) (UniProt P13053); test: Displacement of [3H]1-alpha,25-(OH)2D3 from rat recombinant VDR ligand-binding domain expressed in Escherichia coli BL21 realtive to 1-alpha,25-(OH)2D3
# T1 sequence (whole entry): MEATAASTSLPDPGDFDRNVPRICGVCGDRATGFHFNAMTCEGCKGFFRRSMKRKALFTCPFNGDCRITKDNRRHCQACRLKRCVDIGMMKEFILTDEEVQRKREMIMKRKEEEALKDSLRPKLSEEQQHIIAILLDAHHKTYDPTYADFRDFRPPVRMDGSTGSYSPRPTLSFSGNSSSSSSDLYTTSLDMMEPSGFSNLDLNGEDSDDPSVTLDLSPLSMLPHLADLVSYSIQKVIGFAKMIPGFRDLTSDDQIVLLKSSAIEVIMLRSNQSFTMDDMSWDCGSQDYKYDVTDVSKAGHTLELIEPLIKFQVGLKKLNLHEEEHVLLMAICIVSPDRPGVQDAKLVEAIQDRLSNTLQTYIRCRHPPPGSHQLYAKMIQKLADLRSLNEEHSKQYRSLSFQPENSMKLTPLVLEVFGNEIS
# [2] = biological target: T2, Vitamin D3 receptor (Homo sapiens, UniProt P11473); test: […] of human VDR induced-transcriptional transactivation of luciferase reporter gene in COS7 cells after 24 hrs; assay type: cell-based, COS-7
# T2 sequence (P11473 whole entry): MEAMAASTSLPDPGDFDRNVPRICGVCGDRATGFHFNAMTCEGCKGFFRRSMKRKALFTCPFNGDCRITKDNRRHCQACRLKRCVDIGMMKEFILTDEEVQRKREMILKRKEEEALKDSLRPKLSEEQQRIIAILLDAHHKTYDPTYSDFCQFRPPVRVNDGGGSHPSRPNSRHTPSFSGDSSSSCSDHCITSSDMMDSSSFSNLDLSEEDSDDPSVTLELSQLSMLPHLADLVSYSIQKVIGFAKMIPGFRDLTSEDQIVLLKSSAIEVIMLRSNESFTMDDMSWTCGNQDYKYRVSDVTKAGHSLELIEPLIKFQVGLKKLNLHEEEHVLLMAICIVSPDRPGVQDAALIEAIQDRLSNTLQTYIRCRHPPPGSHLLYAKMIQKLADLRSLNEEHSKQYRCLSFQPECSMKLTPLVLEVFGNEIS
# [3] = biological target: T3, Vitamin D3 receptor (Homo sapiens) (UniProt P11473); test: Displacement of [3H]1-alpha,25-(OH)2D3 from thymus VDR realtive to 1-alpha,25-(OH)2D3
# T3 sequence (whole entry): T2 sequence (P11473 whole entry)
# [4] = biological target: T3, Vitamin D3 receptor (Homo sapiens); test: […] of human VDR induced-transcriptional transactivation of luciferase reporter gene in COS7 cells after 24 hrs relative to 1-alpha,25-(OH)2D3; assay type: cell-based; settings: COS-7
compound,measurement,setting,value
C[C@H](CCCC(C)(C)O)C1CCC2/C(=C/C=C3C[C@@H](O)C(=CCF)[C@H](O)C3)CCCC21C (some centres undefined) [listing 1 of 3 here],Activity,[1],0.77% and 0.05%
C[C@@H](CCCC(C)(C)O)C1CCC2/C(=C/C=C3C[C@@H](O)C(=CCF)[C@H](O)C3)CCCC21C (some centres undefined) [listing 1 of 3 here],pEC50,[2],10.15
C[C@H](CCCC(C)(C)O)C1CCC2/C(=C/C=C3C[C@@H](O)C(=CCO)[C@H](O)C3)CCCC21C (some centres undefined),Activity,[3],2% and 0.007%
C[C@@H](CCCC(C)(C)O)C1CCC2/C(=C/C=C3C[C@@H](O)C(=CCF)[C@H](O)C3)CCCC21C (some centres undefined) [listing 2 of 3 here],Activity,[1],0.07% and 1.08%
C[C@@H](CCCC(C)(C)O)C1CCC2/C(=C/C=C3C[C@@H](O)C(=CCO)[C@H](O)C3)CCCC21C (some centres undefined),Activity,[3],0.02% and 1.6%
same,Activity,[4],4.2 and 12.5
C[C@H](CCCC(C)(C)O)C1CCC2/C(=C/C=C3C[C@@H](O)C(=CCF)[C@H](O)C3)CCCC21C (some centres undefined) [listing 2 of 3 here],pEC50,[2],9.30
C[C@@H](CCCC(C)(C)O)C1CCC2/C(=C/C=C3C[C@@H](O)C(=CCF)[C@H](O)C3)CCCC21C (some centres undefined) [listing 3 of 3 here],pEC50,[2],8.96
C[C@H](CCCC(C)(C)O)C1CCC2/C(=C/C=C3C[C@@H](O)C(=CCF)[C@H](O)C3)CCCC21C (some centres undefined) [listing 3 of 3 here],pEC50,[2],8.66
